From patent US6277866A, “1-benzyl-4[(5,6-dimethoxy-2-fluoro-1-indanon)-2-yl]methylpiperidine” (priority 1999, dated 2001) come the findings set out here.

This assay deals with T1, acetylcholinesterase (Rattus norvegicus, UniProt P37136).
T1 construct: Using a rat brain homogenate as a source of acetylcholinesterase; from tissue; host or cells: rat brain homogenate
Nature of the assay: Inhibitory action on acetylcholinesterase in vitro (rat brain homogenate, Ellman method). The class given is biochemical. The note with it: acetylthiocholine substrate, DTNB, 412 nm, compounds dissolved in physiological saline, read-out: 50% inhibitory concentration (IC50) on acetylcholinesterase. The method, then:
Inhibitory action on acetylcholinesterase in vitro
Using a rat brain homogenate as a source of acetylcholinesterase, its esterase activity was measured in accordance with the method of Ellman et al^1). Acetylthiocholine as the substrate, sample and DTNB (5,5'-dithiobis(2-nitrobenzoic acid)) were added to the homogenate and incubated, whereby the produced thiocholine was reacted with DTNB and the resulting yellow product was measured for the change of absorbance at 412 nm to determine the acetylcholinesterase activity.
Each of the following compounds was used after dissolved in physiological saline.
For orientation: DTNB colorimetry detects thiols as they appear.

Each structure is given as a SMILES string. Where a name gives a salt, the structure may show the parent alone.

T1 sequence (P37136 32-614): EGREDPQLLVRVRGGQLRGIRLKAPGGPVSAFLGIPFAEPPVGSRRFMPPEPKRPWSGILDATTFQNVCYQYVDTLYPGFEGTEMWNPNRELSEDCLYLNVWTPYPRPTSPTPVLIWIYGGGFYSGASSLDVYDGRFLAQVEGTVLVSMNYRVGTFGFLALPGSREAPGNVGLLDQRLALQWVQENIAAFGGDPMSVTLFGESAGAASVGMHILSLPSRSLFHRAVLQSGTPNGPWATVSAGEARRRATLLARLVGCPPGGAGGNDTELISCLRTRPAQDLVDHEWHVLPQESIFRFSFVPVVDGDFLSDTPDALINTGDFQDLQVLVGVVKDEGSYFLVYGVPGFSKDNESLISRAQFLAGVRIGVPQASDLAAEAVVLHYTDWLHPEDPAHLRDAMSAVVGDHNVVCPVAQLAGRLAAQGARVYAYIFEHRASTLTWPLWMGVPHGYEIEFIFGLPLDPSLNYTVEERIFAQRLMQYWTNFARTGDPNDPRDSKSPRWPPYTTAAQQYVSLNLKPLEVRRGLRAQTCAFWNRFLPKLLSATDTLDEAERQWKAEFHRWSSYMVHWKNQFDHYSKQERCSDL

As for `COc1cc2c(cc1OC)C(=O)C(F)(CC1CCN(Cc3ccccc3)CC1)C2` (stereo not shown) [Compound 1, 1-benzyl-4-[5,6-dimethoxy-2-fluoro-1-indanon)-2-yl]methylpiperidine hydrochloride], the IC50 came to 1.3 nM.
